# Earlier results, collected in patent US20110118134A1, “Biomarkers for insulin sensitizer drug response” (IKFE GmbH, priority 2008, published 2011).
# Tested on: MIF
# Conditions: six week treatment, eight non-diabetic patients with obesity
structure (smiles),measurement,value
CN(C)C(=N)N=C(N)N [metformin],Plasma concentration of MIF and transcription of MIF mRNA in mononuclear cells,could be reduced
